# Test results from US12180193B2, “Accelerating fibrosarcoma protein degrading compounds and associated methods of use” (Arvinas Operations, Inc., priority 2020, dated 2024).
# Key:
# BRAF G466V = biological target: T1, BRAF G466V (Homo sapiens, UniProt P15056, G466V); test: Cellular assay of target protein degradation, T-Rex 293 cells stably transfected with HA-BRAF G466V (HA immunofluorescence, high content imaging); assay type: cell-based; conditions: T-Rex 293 HA-BRAF G466V; for DC50: half maximal degradation, read-out: BRaf G466V DC50; for Dmax: maximum degradation observed
# T1 construct: expressed in transfected cells
# How it was run: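 24 h compound, 30 nM–3 pM final, 0.1% DMSO, 37° C; HA-BRAF G466V induced with 0.75 ng/mL doxycycline. PFA fix, Triton perm, anti-HA + Alexa fluor secondary, Hoechst/phalloidin counterstain; imaging. DC50, Dmax (% of control).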
# BRAF V600E = biological target: T2, BRAF V600E (Homo sapiens, UniProt P15056, V600E); test: Cellular assay of target protein degradation, T-Rex 293 cells stably transfected with HA-BRAF_V600E (HA immunofluorescence, high content imaging); assay type: cell-based; conditions: T-Rex 293 HA-BRAF V600E; for DC50: half maximal degradation, read-out: BRaf V600E DC50; for Dmax: maximum degradation observed
# T2 construct: expressed in transfected cells
# How it was run: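 24 h compound exposure, 1 μM–0.1 nM final, 0.1% DMSO, 37 °C; cells induced with 1 ng/mL doxycycline. PFA fix, Triton permeabilize, anti-HA overnight 4 °C, Hoechst/phalloidin counterstain. Output: DC50, Dmax as % control.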
# T2 sequence (P15056 whole entry V600E): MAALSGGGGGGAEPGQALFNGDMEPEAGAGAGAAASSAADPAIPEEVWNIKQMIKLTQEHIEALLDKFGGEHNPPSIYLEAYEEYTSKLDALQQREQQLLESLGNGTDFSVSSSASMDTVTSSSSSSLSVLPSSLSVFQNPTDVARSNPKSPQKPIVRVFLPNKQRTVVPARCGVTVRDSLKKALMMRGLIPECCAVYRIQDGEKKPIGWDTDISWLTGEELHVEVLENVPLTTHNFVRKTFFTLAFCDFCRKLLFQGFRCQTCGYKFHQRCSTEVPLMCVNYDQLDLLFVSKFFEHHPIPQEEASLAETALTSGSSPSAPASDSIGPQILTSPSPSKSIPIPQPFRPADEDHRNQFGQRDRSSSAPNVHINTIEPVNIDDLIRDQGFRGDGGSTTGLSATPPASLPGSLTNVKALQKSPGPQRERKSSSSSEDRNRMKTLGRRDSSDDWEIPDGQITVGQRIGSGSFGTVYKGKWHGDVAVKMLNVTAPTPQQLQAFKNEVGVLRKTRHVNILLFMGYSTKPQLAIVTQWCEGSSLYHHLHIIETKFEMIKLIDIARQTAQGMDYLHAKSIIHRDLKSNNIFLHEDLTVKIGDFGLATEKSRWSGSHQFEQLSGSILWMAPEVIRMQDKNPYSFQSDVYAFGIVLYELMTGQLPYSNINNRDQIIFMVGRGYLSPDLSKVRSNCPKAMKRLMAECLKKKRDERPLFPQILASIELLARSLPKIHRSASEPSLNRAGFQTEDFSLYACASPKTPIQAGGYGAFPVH
# T1 sequence (P15056 whole entry G466V): as the sequence (P15056 whole entry V600E) above, with G466V, E600V counted along it
DC50 (BRAF G466V),Dmax (BRAF G466V),DC50 (BRAF V600E),Dmax (BRAF V600E),SMILES
0.001 to 0.01 µM,> 70%,0.005 to 0.05 µM,35 to 70%,"C[C@H]1[C@H](F)CCN1S(=O)(=O)Nc1ccc(F)c(C(=O)c2c[nH]c3ncc(-c4ccc(N5CCC(CN6CCC(c7ccc8c(c7)CN(C7CCC(=O)NC7=O)C8=O)CC6)CC5)cc4)cc23)c1F (stereo partly drawn) [Compound 271, (2S,3R)-N-[3-(5-{4-[4-({4-[2-(2,6-dioxopiperidin-3-yl)-1-oxo-2,3-dihydro-1H-isoindol-5-yl]piperidin-1-yl}methyl)piperidin-1-yl]phenyl}-1H-pyrrolo[2,3-b]pyridine-3-carbonyl)-2,4-difluorophenyl]-3-fluoro-2-methylpyrrolidine-1-sulfonamide]"
0.001 to 0.01 µM,> 70%,0.005 to 0.05 µM,35 to 70%,"O=C1CCN(c2ccc(N3CCC(CN4CC5(C4)CN(c4ccc(-c6cnc7[nH]cc(C(=O)c8c(F)ccc(NS(=O)(=O)N9CC[C@@H](F)C9)c8F)c7c6)cc4)C5)CC3)cc2F)C(=O)N1 [Compound 156, (3R)-N-[3-(5-{4-[6-({1-[4-(2,4-dioxo-1,3-diazinan-1-yl)-3-fluorophenyl]piperidin-4-yl}methyl)-2,6-diazaspiro[3.3]heptan-2-yl]phenyl}-1H-pyrrolo[2,3-b]pyridine-3-carbonyl)-2,4-difluorophenyl]-3-fluoropyrrolidine-1-sulfonamide]"
< 0.001 µM,> 70%,0.005 to 0.05 µM,35 to 70%,"COc1cc(N2CC3(CN(CC4CCN(c5ncc(-c6cnc7[nH]cc(C(=O)c8c(F)ccc(NS(=O)(=O)N9CC[C@@H](F)C9)c8F)c7c6)cn5)CC4)C3)C2)cc2c1C(=O)N(C1CCC(=O)NC1=O)C2 (stereo partly drawn) [Compound 134, (3R)-N-[3-(5-{2-[4-({6-[2-(2,6-dioxopiperidin-3-yl)-7-methoxy-1-oxo-2,3-dihydro-1H-isoindol-5-yl]-2,6-diazaspiro[3.3]heptan-2-yl}methyl)piperidin-1-yl]pyrimidn-5-yl}-1H-pyrrolo[2,3-b]pyridine-3-carbonyl)-2,4-difluorophenyl]-3-fluoropyrrolidine-1-sulfonamide]"
0.001 to 0.01 µM,> 70%,0.005 to 0.05 µM,35 to 70%,"O=C1CCC(N2Cc3cc(N4CCC(CN5CC[C@H]6[C@@H](C5)CN6c5ccc(-c6cnc7[nH]cc(C(=O)c8c(F)ccc(NS(=O)(=O)N9CC[C@@H](F)C9)c8F)c7c6)cc5)CC4)ccc3C2=O)C(=O)N1 (stereo partly drawn) [Compound 329, (3R)-N-[3-(5-{4-[(1S,6S)-3-({1-[2-(2,6-dioxopiperidin-3-yl)-1-oxo-2,3-dihydro-1H-isoindol-5-yl]piperidin-4-yl}methyl)-3,7-diazabicyclo[4.2.0]octan-7-yl]phenyl}-1H-pyrrolo[2,3-b]pyridine-3-carbonyl)-2,4-difluorophenyl]-3-fluoropyrrolidine-1-sulfonamide]"
0.001 to 0.01 µM,35 to 70%,0.005 to 0.05 µM,35 to 70%,"C[C@H]1CCCN1S(=O)(=O)Nc1ccc(F)c(C(=O)c2c[nH]c3ncc(-c4ccc(N5CCC(CN6CCC(c7ccc8c(c7)CN([C@H]7CCC(=O)NC7=O)C8=O)CC6)CC5)cc4)cc23)c1F [Compound 211, (2S)—N-{3-[5-(4-{4-[(4-{2-[(3S)-2,6-dioxopiperidin-3-yl]-1-oxo-2,3-dihydro-1H-isoindol-5-yl}piperidin-1-yl)methyl]piperidin-1-yl}phenyl)-1H-pyrrolo[2,3-b]pyridine-3-carbonyl]-2,4-difluorophenyl}-2-methylpyrrolidine-1-sulfonamide]"
0.001 to 0.01 µM,> 70%,0.05 to 0.5 µM,35 to 70%,"COc1cc([C@H](O)CCN2CCN(c3ccc(-c4cnc5[nH]cc(C(=O)c6c(F)ccc(NS(=O)(=O)N7CC[C@@H](F)C7)c6F)c5c4)cc3)CC2)cc2c1C(=O)N([C@@H]1CCC(=O)NC1=O)C2 [Compound 187, (3R)-N-{3-[5-(4-{4-[(3R)-3-{2-[(3R)-2,6-dioxopiperidin-3-yl]-7-methoxy-1-oxo-2,3-dihydro-1H-isoindol-5-yl}-3-hydroxypropyl]piperazin-1-yl}phenyl)-1H-pyrrolo[2,3-b]pyridine-3-carbonyl]-2,4-difluorophenyl}-3-fluoropyrrolidine-1-sulfonamide]"
0.001 to 0.01 µM,> 70%,0.005 to 0.05 µM,35 to 70%,"CN(CC1CCN(c2ccc(-c3cnc4[nH]cc(C(=O)c5c(F)ccc(NS(=O)(=O)N6CC[C@@H](F)C6)c5F)c4c3)cc2)CC1)[C@H]1C[C@@H](Oc2ccc3c(c2)CN(C2CCC(=O)NC2=O)C3=O)C1 (stereo partly drawn) [Compound 155, (3R)-N-[2,4-difluoro-3-(5-{4-[4-({methyl[(1s,3s)-3-{[2-(2,6-dioxopiperidin-3-yl)-1-oxo-2,3-dihydro-1H-isoindol-5-yl]oxy}cyclobutyl]amino}methyl)piperidin-1-yl]phenyl}-1H-pyrrolo[2,3-b]pyridine-3-carbonyl)phenyl]-3-fluoropyrrolidine-1-sulfonamide]"
0.001 to 0.01 µM,> 70%,0.005 to 0.05 µM,35 to 70%,"O=C1CC[C@@H](N2Cc3cc(N4CCN(CC5CCN(c6ccc(-c7cnc8[nH]cc(C(=O)c9c(F)ccc(NS(=O)(=O)N%10CC[C@@H](F)C%10)c9F)c8c7)cc6)CC5)CC4)ccc3C2=O)C(=O)N1 [Compound 220, (3R)-N-{3-[5-(4-{4-[(4-{2-[(3R)-2,6-dioxopiperidin-3-yl]-1-oxo-2,3-dihydro-1H-isoindol-5-yl}piperazin-1-yl)methyl]piperidin-1-yl}phenyl)-1H-pyrrolo [2,3-b]pyridine-3-carbonyl]-2,4-difluorophenyl}-3-fluoropyrrolidine-1-sulfonamide]"
0.001 to 0.01 µM,> 70%,0.005 to 0.05 µM,35 to 70%,"O=C1CC[C@H](NC(=O)c2ccc(N3CCN(CC4CCN(c5ccc(-c6cnc7[nH]cc(C(=O)c8c(F)ccc(NS(=O)(=O)N9CC[C@@H](F)C9)c8F)c7c6)cc5)CC4)CC3)cc2F)C(=O)N1 [Compound 341, 4-(4-{[1-(4-{3-[2,6-difluoro-3-({[(3R)-3-fluoropyrrolidin-1-yl]sulfonyl}amino)benzoyl]-1H-pyrrolo[2,3-b]pyridin-5-yl}phenyl)piperidin-1-yl]methyl}piperazin-1-yl)-N-[(3S)-2,6-dioxopiperidin-3-yl]-2-fluorobenzamide]"
< 0.001 µM,35 to 70%,0.05 to 0.5 µM,> 70%,"O=C1CC[C@@H](NC(=O)c2ccc(N3CCN(CCc4ccc(-c5cnc6[nH]cc(C(=O)c7c(F)ccc(NS(=O)(=O)N8CC[C@@H](F)C8)c7F)c6c5)cc4)CC3)cc2F)C(=O)N1 [Compound 28, 4-{4-[2-(4-{3-[2,6-difluoro-3-({[(3R)-3-fluoropyrrolidin-1-yl]sulfonyl}amino)benzoyl]-1H-pyrrolo[2,3-b]pyridin-5-yl}phenyl)ethyl]piperazin-1-yl}-N-[(3R)-2,6-dioxopiperidin-3-yl]-2-fluorobenzamide]"
< 0.001 µM,> 70%,0.005 to 0.05 µM,35 to 70%,"COc1cc(N2CC3(CN(CC4CCN(c5ccc(-c6cnc7[nH]cc(C(=O)c8c(F)ccc(NS(=O)(=O)N9CC[C@@H](F)C9)c8F)c7c6)cn5)CC4)C3)C2)cc2c1C(=O)N(C1CCC(=O)NC1=O)C2 (stereo partly drawn) [Compound 133, (3R)-N-[3-(5-{6-[4-({6-[2-(2,6-dioxopiperidin-3-yl)-7-methoxy-1-oxo-2,3-dihydro-1H-isoindol-5-yl]-2,6-diazaspiro[3.3]heptan-2-yl}methyl)piperidin-1-yl]pyridin-3-yl}-1H-pyrrolo[2,3-b]pyridine-3-carbonyl)-2,4-difluorophenyl]-3-fluoropyrrolidine-1-sulfonamide]"

SMILES,DC50 (BRAF G466V),Dmax (BRAF G466V),DC50 (BRAF V600E),Dmax (BRAF V600E)
"CN(CCN1CCN(c2ccc3c(c2)CN(C2CCC(=O)NC2=O)C3=O)CC1)[C@H]1C[C@@H](Oc2ccc(-c3cnc4[nH]cc(C(=O)c5c(F)ccc(NS(=O)(=O)N6CC[C@@H](F)C6)c5F)c4c3)cc2)C1 (stereo partly drawn) [Compound 182, (3R)-N-[2,4-difluoro-3-(5-{4-[(1s,3s)-3-[(2-{4-[2-(2,6-dioxopiperidin-3-yl)-1-oxo-2,3-dihydro-1H-isoindol-5-yl]piperazin-1-yl}ethyl)(methyl)amino]cyclobutoxy)phe-nyl}-1H-pyrrolo[2,3-b]pyridine-3-carbonyl)phenyl]-3-fluoropyrrolidine-1-sulfonamide]",0.001 to 0.01 µM,> 70%,0.05 to 0.5 µM,35 to 70%
"CN(CC1CCN(c2ccc3c(c2)CN(C2CCC(=O)NC2=O)C3=O)CC1)[C@H]1C[C@@H](Oc2ccc(-c3cnc4[nH]cc(C(=O)c5c(F)ccc(NS(=O)(=O)N6CC[C@@H](F)C6)c5F)c4c3)cc2)C1 (stereo partly drawn) [Compound 167, (3R)-N-[2,4-difluoro-3-(5-{4-[(1s,3s)-3-[({1-[2-(2,6-dioxopiperidin-3-yl)-1-oxo-2,3-dihydro-1H-isoindol-5-yl]piperidin-4-yl}methyl)(methyl)amino]cyclobutoxy)phe-nyl}-1H-pyrrolo[2,3-b]pyridine-3-carbonyl)phenyl]-3-fluoropyrrolidine-1-sulfonamide]",0.001 to 0.01 µM,35 to 70%,0.005 to 0.05 µM,35 to 70%
